Assay results: a melting point compilation (Tetko et al.; mined from patent text by program, amines drawn as free bases though some values may be those of a salt)

Structure (SMILES) | melting point [°C]
CC(C)(C)OC(=O)NCCn1cc(COc2ccc(C3=NC(=Nc4[nH]c(-c5ccc(O)cc5)cc4-c4ccccc4)C(c4ccccc4)=C3)cc2)nn1 | 128 to 130
CCNc1c(S(=O)C(F)(F)F)c(C)nn1-c1c(Cl)cc(C(F)(F)F)cc1Cl (stereo not drawn) | 76
COc1ccc(-c2ccc(OC3SCC(OC(C)=O)C(OC(C)=O)C3OC(C)=O)cn2)cc1 (stereo not drawn) | 208
COC(=O)c1cccc2c(Br)c(OC)ccc12 | 119
O=C(O)c1cc(C(F)(F)F)ccc1I | 171 to 172
C[C@H](NC1=NC=NC(N)(Cl)N1)c1ccccc1 (stereo partly drawn) | 163 to 164
COc1cc(O)c(C=O)cc1OC | 104 to 105
C=CCO[C@@H]1CC(C(=O)O)=C[C@@H](OC(C)C)[C@@H]1NC(C)=O | 70 to 71
CC(C)c1nn(-c2ncc(C(F)(F)F)cc2Cl)cc1CCCO | 66 to 67
CNS(=O)(=O)c1cccc(-c2cnc3[nH]cc(C(=O)C(C)(C)C)c3n2)c1 | 245 to 247
Cn1c([N+](=O)[O-])cnc1C1=NOC2OCCCC12 (stereo not drawn) | 140 to 142
CC(=O)Nc1ccc(OCCN(CC(=O)c2ccc(OCc3ccccc3)c(OCc3ccccc3)c2)Cc2ccccc2)cc1 | 104 to 106
COCOc1c(NC(=O)Nc2ccccc2)cc(OC)cc1C(C)(C)C | 121 to 123
CCOC(=O)c1cc(OC)c(Cc2cnc(N)nc2N)c(OC)c1 | 201 to 202
CC(C(N)=S)(c1ccccc1)c1ccccn1 (stereo not drawn) | 186 to 188
C=C(C)c1ccccc1S(N)(=O)=O | 76 to 85
CC1=NN(c2c(Cl)cc(Cl)cc2Cl)C(=O)C1 | 178 to 180
CCOC(=O)c1[nH]c(C)c(CC)c1CC | 76 to 77
COC(=O)c1ccc2nc3c(C)sc(C)c3c(=O)n2c1 | 209 to 210
CCN=C(N)N(CC)N=C(C=Cc1ccc(OC(F)F)cc1)C=Cc1ccc(OC(F)F)cc1 | 97 to 99
CCN(CCCCCCCCN(CC)S(=O)(=O)c1ccc(C)cc1)S(=O)(=O)c1ccc(C)cc1 | 112 to 113
CCC(=O)OCC1OC(n2cnc3c(OC)nc(N)nc32)C(O)C1O (stereo not drawn) | 124

Structure (SMILES) | melting point [°C]
CC(Sc1ccccc1)n1cc(C2=C(c3cn(C(C)Sc4ccccc4)c4ccccc34)C(=O)NC2=O)c2ccccc21 (stereo not drawn) | 102 to 105
CC(C)C(=O)OC1C(CO)OC(n2cnc3c(N)ncnc32)C1OC(=O)C(C)C (stereo not drawn) | 207 to 208
CN(C(=O)C1CCC1)c1cccc(-c2ccnc3c(C(=O)c4ccco4)cnn23)c1 | 166 to 167
CC(=O)Nc1ccc(C(=O)c2cccnc2)cc1 | 215
CS(=O)(=O)c1ccc(C#CCF)cc1 | 97 to 99
O=C(Nc1ccc(Cl)cc1)C(Cl)CCl (stereo not drawn) | 128 to 129
Nc1nc(-c2ccccc2)c(C(O)CO)c2ncnn12 (stereo not drawn) | 199 to 200
COC(=O)C1(C)CCc2c(C)c(O)c(C)c(C)c2O1 (stereo not drawn) | 132 to 135
CP(=O)(O)CCC(=O)O | 95
COC(=O)c1sccc1-c1ccccc1 | 63 to 66
N#CC(N)(N)c1cccnc1 | 158
COC(=O)c1c(OC)cccc1C(=O)O | 140 to 141
CCOC(=O)c1cn(CC)c2sc(Br)cc2c1=O | 153 to 156
CNC1=NS(=O)(=O)N=C1NCCCCc1ccc(CN(C)C)o1 | 152 to 153
COc1ccc(Br)cc1CC#N | 60.5 to 60.9
Cc1cn(-c2cc(C)c(N)c(Br)c2)c(C)n1 | 176 to 180
COc1cccc2[nH]cc(/C(C#N)=C/c3cccnc3)c12 | 177
COC(=O)C(Cc1c[nH]c2ccccc12)NC1CCC(c2ccccc2)(N(C)C)CC1 (stereo not drawn) | 60 to 65
Cc1nn(C2CCCC2O)c(N)c1C#N (stereo not drawn) | 157 to 159
O=C(c1ccccc1)c1ccc(O)c(Cl)c1Cl | 123 to 126
COc1ccc(C(=C/C=C/C(=O)NCCCCc2cccnc2)c2ccc(OC)cc2)cc1 | 76 to 77

Continued, values first:

melting point [°C] | Structure (SMILES)
126 to 128 | CCCCc1nn(-c2ccc([N+](=O)[O-])cc2C(F)(F)F)c(=O)[nH]1
114 to 117 | CN1CCCc2c(NC(=NC#N)NC(NC(=O)Cc3ccc(Cl)cc3)C(C)(C)C)cccc21 (stereo not drawn)
125 to 130 | CN1CC(=O)OC2(CCN(CC=CC(=O)Nc3cc4c(Nc5ccc(F)c(Cl)c5)ncnc4cc3OCC3CC3)CC2)C1
325 to 327 | O=C(Nc1ccc(-c2ncc(-c3ccc(NC(=O)C4CCCCCC4)cc3)[nH]2)cc1)c1ccc(Cl)cc1
271 to 275 | Fc1cc2c(Nc3ccc(Cl)c(Br)c3)ncnc2cn1
197 to 198 | Brc1c(NC2=NCCN2)ccc2c1ncn2Cc1ccccc1
160 | COc1ccc(-c2oc3ccc(CC(=O)N4CCN(c5ccccc5)CC4)cc3c2SC)cc1OC
> 300 | O=c1c(O)c(-c2nnc(Cc3ccc(F)cc3)o2)[nH]c2ccccc12
264 to 265 | COC(=O)c1c(C(=O)OC)c(-c2ccc(Cl)cc2)n2c1Cc1c(n(C)c3ccccc13)C2
173 to 190 | COc1cc(C(=O)N2CCC(CCN3CCC(C(=O)c4nc5ccccc5n4Cc4ccc(C(=O)O)cc4)CC3)(c3ccccc3)C2)cc(OC)c1OC (stereo not drawn)
98 to 98.5 | CN1C(=O)C(CCCN2CCN(c3ccc(F)cc3)CC2)Oc2cc3c(cc21)CCCC3 (stereo not drawn)
184 | CCCOc1ccccc1-c1nc(N)cc(=O)[nH]1
232 to 238 | Nc1ccc(-c2nc(N3CCOCC3)c3sc(C(=O)NCC4CCN(c5ncc(C(=O)NO)cn5)CC4)cc3n2)cc1
105 | CCCc1nc(C=O)c(C(=O)OCC)n1Cc1cc2c(cc1Cl)OCO2
155 to 158 | COc1cc(N)c(C(=O)c2ccncc2)cc1OC
92 to 93 | CC(=O)OCC(O)(CN(C)S(=O)(=O)c1ccc(Cl)c(C)c1)c1cccc(Cl)n1 (stereo not drawn)
137 to 142 | COc1cc(Br)c(/C=C/c2cc(/C=C/c3ccc4cc[nH]c4c3)[nH]n2)cc1O
155 to 158 | CC(C)CCn1cc([N+](=O)[O-])cc1C(=O)Nc1cc(C(=O)NCCCN2CCOCC2)n(C)c1
126 to 127 | CCCN1C(=O)C(NC(=O)Nc2cccc(C)c2)N=C(N(C)C2CCCCC2)c2ccccc21 (single isomer, unassigned; (+))
> 350 | CC(=O)N1CCc2[nH]cc3c(=O)n(-c4ccc(Cl)cc4)nc-3c2C1
87 to 88 | CCCc1c(OCCCOc2cccc3c2CCCC3)ccc2c1OC(CCCC(O)CO)(CCCC(O)CO)CC2=O (stereo not drawn)
63 to 64 | CC(=O)c1cccc2c1ccn2C
178 to 179 | CCn1nc(-c2ccccc2)c(C(C)=O)c(Nc2cc(C)no2)c1=O
163 to 165 | CCc1nc2ccccc2n(-c2ccc(Cl)cc2)c1=O
168 to 174 | C#CCN1CCN(C2Cc3ccc(C)cc3Sc3ccc(F)cc32)CC1 (stereo not drawn)
178 to 181 | CC(C)(C1OCCO1)C(O)C(Cc1ccc(Cl)cc1Cl)n1cncn1 (stereo not drawn)
204 to 205 | CCCCc1nc2cccc(C(=O)O)c2n1Cc1ccc(-c2ccccc2-c2n[nH]c(=O)o2)cc1
193 to 195 | COc1ccc(Cl)cc1C1(F)C(=O)Nc2ccc(C)cc21 (stereo not drawn)

melting point [°C] | Structure (SMILES)
62 to 64 | CNC(=O)NC(=O)C(CC1CCCC1O)c1ccc(Cl)c(Cl)c1 (stereo not drawn)
300 | COc1ccc(-c2[nH]nc3c2C(=O)c2c(NC(=O)Cc4ccccc4Cl)cccc2-3)cc1
147 to 148 | C[Si](C)(C)CCOCn1ccc2c(=O)[nH]ncc21
118 to 120 | O=C(NCCCC(F)(F)F)Oc1ccc([N+](=O)[O-])cc1
42 to 44 | Clc1ccc(CSCc2ccc(Cl)cc2)cc1
166 to 168 | O=C(C=Cc1cccc(Br)c1)c1ccc(OC2CCCCO2)cc1 (stereo not drawn)
189 to 192 | CCOc1ccccc1C=C1CCc2c1oc1ccc(C(=O)OC)cc1c2=O
208 | O=C(Nc1cccc(S(=O)(=O)NCc2ccccn2)c1)c1cnn2c(C(F)F)cc(-c3ccc(C(F)(F)F)cc3)nc12
176 | Cc1nc2n(c(=O)c1CCN1CCC(=C(c3ccccc3)c3ccccc3)CC1)CCCS2
83 to 84 | C=C(C(=O)c1cc(C)cc(C)c1O)c1ccccc1
121 to 124 | CC(Oc1ccc(Br)cc1)c1ccnc2ncnn12 (stereo not drawn)
205 to 207 | CC(=O)Nc1cccc(-c2ccnc3c(Cc4ccccc4)cnn23)c1
175 to 178 | Cc1c(NC(=O)c2ccc(-c3ccc(OC(F)(F)F)cc3)cc2F)ccc2cc(CN3CCCC3)cnc12
180 | Cc1cc(SC2=C(O)CC(CCc3ccc(O)cc3)(C3CCCCC3)OC2=O)c(C(C)(C)C)cc1OS(=O)(=O)c1ccccc1 (stereo not drawn)
135 to 139 | CC1(C)CN(c2ncc(C(=O)N(c3cccc(C(F)(F)F)c3)C3CCCC3)c(N)n2)C(=O)N1
150 | Cc1cc2c(cc1Cl)nc(Br)n2[C@@H]1OC[C@@H](O)[C@@H](O)[C@H]1O
169 to 171 | NC(=O)c1ccc2c(c1)CCOC2CCN1CCN(c2ccc(Cl)cc2)CC1 (stereo not drawn)
98 to 101 | Cn1ccnc1Sc1ccc(Nc2c(C#N)cnc3cc(-c4ccc(C(=O)N5CCOCC5)cc4)ccc23)cc1Cl
225 to 227 | Fc1ccc(-c2cc3[nH]ccn3n2)cc1
93 to 95 | CCCc1c(OCC(O)COc2ccc(C(=O)O)cc2Br)ccc(C(C)=O)c1O (stereo not drawn)
83 to 84 | CCCCOc1ccc(S(=O)(=O)N2CCC(O)C2)cc1 (stereo not drawn)
106 to 107 | CC(C)(C)OC(=O)NC(Cc1ccccc1)C1CC(Cc2ccccc2)=NO1 (stereo not drawn)
198 to 201 | Cc1cc(F)cc2c(=O)c(C(=O)O)cn(CC(F)(F)F)c12
109 to 111 | CC(C)c1ccc(-c2noc3c2CCC(C(=O)O)CC3)cc1 (stereo not drawn)
90 to 92 | O=C(O)c1nc(Oc2cccc(C(F)(F)F)c2)ccc1Cl
170 to 172 | O=C(O)c1ccc(OCCCON=Cc2ccc(-c3ccccc3)cc2)cc1NC(=O)c1ccccc1C(F)(F)F
183 to 184 | O=c1oc(-c2cccnc2)cc(O)c1SCc1ccccc1
